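Protocol summary: plate cells (96-well), add compound at 5 concentrations, incubate 48 h, interpolate endpoints linearly. TGI is the concentration that stops growth completely.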
Tests used:
Experiment in all cases: NCI tumour cell line growth inhibition, 48 h
[1] = system: 786-0 renal
[2] = system: A498 renal
[3] = system: A549 NSCLC
[4] = system: ACHN renal
[5] = system: BT-549 breast
[6] = system: CAKI-1 renal
[7] = system: CCRF-CEM leukemia
[8] = system: COLO 205 colon
[9] = system: DLD-1 colon
[10] = system: DMS 114 small cell lung
[11] = system: DMS 273 small cell lung
[12] = system: DU-145 prostate
[13] = system: EKVX NSCLC
[14] = system: HCC-2998 colon
[15] = system: HCT-116 colon
[16] = system: HCT-15 colon
[17] = system: HL-60(TB) leukemia
[18] = system: HOP-18 NSCLC
[19] = system: HOP-62 NSCLC
[20] = system: HOP-92 NSCLC
[21] = system: HS 578T breast
[22] = system: HT29 colon
[23] = system: IGROV1 ovarian
[24] = system: KM12 colon
[25] = system: KM20L2 colon
[26] = system: LOX IMVI melanoma
[27] = system: LXFL 529 NSCLC
[28] = system: M14 melanoma
[29] = system: M19-MEL melanoma
[30] = system: MALME-3M melanoma
[31] = system: MCF7 breast
[32] = system: MDA-MB-231 breast
[33] = system: MDA-MB-435
[34] = system: MDA-N
[35] = system: MOLT-4 leukemia
[36] = system: NCI-H226 lung
[37] = system: NCI-H23 lung
[38] = system: NCI-H460 lung
[39] = system: NCI-H522 lung
[40] = system: NCI/ADR-RES ovarian
[41] = system: OVCAR-3 ovarian
[42] = system: OVCAR-4 ovarian
[43] = system: OVCAR-5 ovarian
[44] = system: OVCAR-8 ovarian
[45] = system: PC-3 prostate
[46] = system: RPMI-8226 leukemia
[47] = system: RXF 393 renal
[48] = system: RXF-631 renal
[49] = system: SF-268 CNS
[50] = system: SF-295 CNS
[51] = system: SF-539 CNS
[52] = system: SK-MEL-2 melanoma
[53] = system: SK-MEL-28 melanoma
[54] = system: SK-MEL-5 melanoma
[55] = system: SK-OV-3 ovarian
[56] = system: SN12C renal
[57] = system: SNB-19 CNS
[58] = system: SNB-75 CNS
[59] = system: SNB-78 CNS
[60] = system: SR leukemia
[61] = system: SW-620 colon
[62] = system: T-47D breast
[63] = system: TK-10 renal
[64] = system: U251 CNS
[65] = system: UACC-257 melanoma
[66] = system: UACC-62 melanoma
[67] = system: UO-31 renal
[68] = system: XF 498 CNS

O=C(CC1(O)C(=O)Nc2c(Cl)ccc(Cl)c21)c1ccco1 (stereo not drawn)
TGI [1]: 46.8 µM
TGI [2]: 64 µM
TGI [3]: 49.9 µM
TGI [4]: 38.6 µM
TGI [5]: > 100 µM
TGI [6]: > 72.3 µM
TGI [7]: 26.9 µM
TGI [8]: 33 µM
TGI [9]: > 100 µM
TGI [10]: 33.5 µM
TGI [11]: > 100 µM
TGI [12]: > 100 µM
TGI [13]: 50.5 µM
TGI [14]: > 88.5 µM
TGI [15]: 32.4 µM
TGI [16]: > 70.2 µM
TGI [17]: 35.1 µM
TGI [18]: > 100 µM
TGI [19]: 66.2 µM
TGI [20]: 49.8 µM
TGI [21]: 71.5 µM
TGI [22]: > 93.4 µM
TGI [23]: 40 µM
TGI [24]: > 78.3 µM
TGI [25]: > 100 µM
TGI [26]: 29.4 µM
TGI [27]: 27.4 µM
TGI [28]: 27.8 µM
TGI [29]: 5.33 µM
TGI [30]: 34.7 µM
TGI [31]: 39.5 µM
TGI [32]: 48.7 µM
TGI [33]: 3.44 µM
TGI [34]: 12.8 µM
TGI [35]: 61 µM
TGI [36]: 47.5 µM
TGI [37]: 34 µM
TGI [38]: 45.6 µM
TGI [39]: > 100 µM
TGI [40]: 74.1 µM
TGI [41]: 18.7 µM
TGI [42]: 24.5 µM
TGI [43]: 38.7 µM
TGI [44]: > 73.8 µM
TGI [45]: > 100 µM
TGI [46]: 40.8 µM
TGI [47]: 43.2 µM
TGI [48]: 65.3 µM
TGI [49]: > 84.2 µM
TGI [50]: 40.9 µM
TGI [51]: 59.7 µM
TGI [52]: > 69.2 µM
TGI [53]: 38.2 µM
TGI [54]: 31.7 µM
TGI [55]: > 74.3 µM
TGI [56]: 31.8 µM
TGI [57]: > 100 µM
TGI [58]: 71.7 µM
TGI [59]: > 100 µM
TGI [60]: 14.8 µM
TGI [61]: 56.4 µM
TGI [62]: 72.9 µM
TGI [63]: > 81.6 µM
TGI [64]: > 74.4 µM
TGI [65]: 40.1 µM
TGI [66]: 19.3 µM
TGI [67]: 54.9 µM
TGI [68]: 24.2 µM
